From patent publication US20180098969A1, “HODGKIN LYMPHOMA THERAPY” (Purdue Pharmaceutical Products L.P., priority 2016, published 2018)

Key:
[1] = Weight of xenografted mice; assay type: in vivo, NSG mice
Experimental: Two independent experiments were performed to investigate the dose-effect of EDO-S101 in NSG mice eight weeks after xenografting with L428 cells as in Example 8. The aim of the protocol shown in FIG. 8B was to evaluate the effect of sequential treatment with a moderate dose of 60 mg/kg given at an interval of three weeks.
This weight loss was also observed in mice treated with the vehicle. In contrast, the weight of the control mice receiving only freshly prepared phosphate buffered saline (PBS) buffered to 7.3-7.4 increased up to 11 weeks and then started to decrease.
The toxicity of the dose of 80 mg/kg compared to 60 mg/kg was investigated, as compared to the control groups vehicle and PBS.

[2] = tested on: L428 cells; test: Xenograft in NSG mice, HE staining and immunohistochemistry; assay type: in vivo; conditions: for Injection site: Tumour cell necrosis/apoptosis: Marked / Injection site: Tumour cell necrosis/apoptosis: Mild / Injection site: Tumour cell necrosis/apoptosis: Minimal / Injection site: Tumour cell necrosis/apoptosis: Moderate / Injection site: Tumour cell necrosis/apoptosis: No / Injection site: Tumour cell necrosis/apoptosis: Overall / Injection site: Tumour cell necrosis/apoptosis: Severe / Injection site: Tumour infiltration: Marked / Injection site: Tumour infiltration: Mild / Injection site: Tumour infiltration: Minimal / Injection site: Tumour infiltration: Moderate / Injection site: Tumour infiltration: No / Injection site: Tumour infiltration: Overall / Injection site: Tumour infiltration: Severe / Liver: Tumour infiltration: Marked / Liver: Tumour infiltration: Mild / Liver: Tumour infiltration: Minimal / Liver: Tumour infiltration: Moderate / Liver: Tumour infiltration: No / Liver: Tumour infiltration: Overall / Liver: Tumour infiltration: Severe / Tumour presence: Animals with tumour infiltration in liver and in the injection area / Tumour presence: Overall / Liver: Tumour cell necrosis/apoptosis: Marked / Liver: Tumour cell necrosis/apoptosis: Mild / Liver: Tumour cell necrosis/apoptosis: Minimal / Liver: Tumour cell necrosis/apoptosis: Moderate / Liver: Tumour cell necrosis/apoptosis: No / Liver: Tumour cell necrosis/apoptosis: Overall / Liver: Tumour cell necrosis/apoptosis: Severe: % of mice
Description: Immunodeficient NOD-SCID-gammac−/− (NSG) mice aged 5 to 6 weeks were purchased from Charles River (NOD.Cg-Prkdcscid Il2rgtm1Wjl/SzJ). The mice arrived two weeks before the beginning of the experiments and were housed in micro-isolator cages during the entire course of the study. Immediately prior to the injection of Hodgkin lymphoma cells, mice were exposed to 3 Gy gamma irradiation using an IBL637 ^137Cs irradiator at a dose rate of 0.61 Gy/min. From 10^3 to 10^6 cells, either from the original cell lines or following amplification, were injected intravenously via the retro-orbital sinus. The mice were sacrificed by cervical dislocation and different organs were analysed and tumoural infiltration examined using multiple techniques.
Two independent experiments were performed to investigate the dose-effect of EDO-S101 in NSG mice eight weeks after xenografting with L428 cells as in Example 8. The aim of the protocol shown in FIG. […]
The mice were sacrificed by cervical dislocation. The sampled organs consisted of the eyes (site of injection), liver, spleen and bone marrow. Following dissection of different organs, including tumours, the first portion was used for flow cytometry (FACS) and cytogenetic analyses while the second was fixed in 4% paraformaldehyde (PFA) for immunohistochemistry (IHC). To obtain a single cell suspension, the tissues were first cut into pieces. Thereafter, the cells were physically disaggregated using an 80 μm nylon cell strainer and filtered a second time through a 70 μm nylon cell strainer (BD Biosciences, Erembodegem, Belgium).
Organs were fixed in 4% PFA, trimmed and post-fixed in 70° ethanol. They were then briefly processed using a vacuum inclusion processor and paraffin blocks were prepared. Five micrometer-thick sections were cut from these blocks and the resulting sections were stained with hemotoxylin-eosine (H&E) for histopathological analysis. In addition, IHC was carried out on of the totality of liver and spleen specimens for confirmation of the spread of engrafted cells. The search for single cells or small groups of grafted Hodgkin lymphoma cells was performed using an anti-CD30 antibody (DAKO, France; 1:40, EDTA pH9 pre-treatment) and the Ventana Discovery XT IHC system. Apoptosis and tumour necrosis were analysed.
Microscopic findings were assigned a severity score based upon the following scale: “0”=within physiological limits, “1”=minimal, “2”=mild, “3”=moderate, “4”=marked, “5”=severe. This severity score was attributed according to the size and number of observed lesions.

[3] = tested on: L1236 cell line; test: Cell cycle checkpoint proteins and gene expression; assay type: cell-based, human; conditions: EDO-S101 alone
Experimental: 1.56 μM of EDO-S101 was administered to two Hodgkin lymphoma cell lines, the bendamustine naïve cell line L1236 and the bendamustine resistant cell line R100. In a second experiment, Brentuximab Vedotin was administered at a concentration of 3.12 μg/ml to the L1236 cell line and at a concentration of 0.39 μg/ml to the R100 cell line. Finally, in a third experiment EDO-S101 and Brentuximab Vedotin were administered in combination to each of the two cell lines at the same concentrations that they were administered in the monotherapy experiments.

[4] = two doses of 60 mg/kg three weeks apart

With Cn1c(CCCCCCC(=O)NO)nc2cc(N(CCCl)CCCl)ccc21 [EDO-S101] the “difference between weight losses” value ([1]; 60 mg/kg versus 80 mg/kg) was “no significant difference”, the “weight of the mice or the different organs” value ([1]; mouse, in vivo) was “No significant difference” and the “weight of the mice” value [1, 4] was “weight loss following each administration which was regained after several weeks”. For the same compound, the “tumour masses in liver and infiltration into other organs” value ([2]; 80 mg/kg) was “No tumour masses were observed in the liver, nor was infiltration observed into the other organs”, the tumour cell necrosis ([2]; 80 mg/kg or 60 mg/kg) was “No cell necerosis was observed” and the “Injection site: Tumour cell necrosis/apoptosis: Marked” value ([2]; 80 mg/kg) was 0.0%. For the same compound, the “Injection site: Tumour cell necrosis/apoptosis: Mild” value ([2]; 80 mg/kg) was 0.0%, the “Injection site: Tumour cell necrosis/apoptosis: Minimal” value ([2]; 80 mg/kg) was 0.0% and the “Injection site: Tumour cell necrosis/apoptosis: Moderate” value ([2]; 80 mg/kg) was 0.0%. For the same compound, the “Injection site: Tumour cell necrosis/apoptosis: No” value ([2]; 80 mg/kg) was 0.0%, the “Injection site: Tumour cell necrosis/apoptosis: Overall” value ([2]; 80 mg/kg) was 100.0% and the “Injection site: Tumour cell necrosis/apoptosis: Severe” value ([2]; 80 mg/kg) was 0.0%. For the same compound, the “Injection site: Tumour infiltration: Marked” value ([2]; 80 mg/kg) was 0.0%, the “Injection site: Tumour infiltration: Mild” value ([2]; 80 mg/kg) was 0.0% and the “Injection site: Tumour infiltration: Minimal” value ([2]; 80 mg/kg) was 0.0%. The “Injection site: Tumour infiltration: Moderate” value ([2]; 80 mg/kg) was 0.0%, the “Injection site: Tumour infiltration: No” value ([2]; 80 mg/kg) was 0.0% and the “Injection site: Tumour infiltration: Overall” value ([2]; 80 mg/kg) was 33.3%. The “Injection site: Tumour infiltration: Severe” value ([2]; 80 mg/kg) was 33.3%, the “Liver: Tumour infiltration: Marked” value ([2]; 80 mg/kg) was 0.0% and the “Liver: Tumour infiltration: Mild” value ([2]; 80 mg/kg) was 0.0%. For the same compound, the “Liver: Tumour infiltration: Minimal” value ([2]; 80 mg/kg) was 0.0%, the “Liver: Tumour infiltration: Moderate” value ([2]; 80 mg/kg) was 0.0% and the “Liver: Tumour infiltration: No” value ([2]; 80 mg/kg) was 100.0%. The “Liver: Tumour infiltration: Overall” value ([2]; 80 mg/kg) was 0.0%, the “Liver: Tumour infiltration: Severe” value ([2]; 80 mg/kg) was 0.0% and the “Tumour presence: Animals with tumour infiltration in liver and in the injection area” value (from here on “Tumour presence: Animals”) ([2]; 80 mg/kg) was 0.0%. The “Tumour presence: Overall” value ([2]; 80 mg/kg) was 33.3%, the “Injection site: Tumour cell necrosis/apoptosis: Marked” value ([2]; 1 * 60 mg/kg) was 0.0% and the “Injection site: Tumour cell necrosis/apoptosis: Mild” value ([2]; 1 * 60 mg/kg) was 0.0%. For the same compound, the “Injection site: Tumour cell necrosis/apoptosis: Minimal” value ([2]; 1 * 60 mg/kg) was 50.0%, the “Injection site: Tumour cell necrosis/apoptosis: Moderate” value ([2]; 1 * 60 mg/kg) was 0.0% and the “Injection site: Tumour cell necrosis/apoptosis: No” value ([2]; 1 * 60 mg/kg) was 50.0%. For the same compound, the “Injection site: Tumour cell necrosis/apoptosis: Overall” value ([2]; 1 * 60 mg/kg) was 100.0%, the “Injection site: Tumour cell necrosis/apoptosis: Severe” value ([2]; 1 * 60 mg/kg) was 0.0% and the “Injection site: Tumour infiltration: Marked” value ([2]; 1 * 60 mg/kg) was 50.0%. The “Injection site: Tumour infiltration: Mild” value ([2]; 1 * 60 mg/kg) was 0.0%, the “Injection site: Tumour infiltration: Minimal” value ([2]; 1 * 60 mg/kg) was 0.0% and the “Injection site: Tumour infiltration: Moderate” value ([2]; 1 * 60 mg/kg) was 25.0%. The “Injection site: Tumour infiltration: No” value ([2]; 1 * 60 mg/kg) was 0.0%, the “Injection site: Tumour infiltration: Overall” value ([2]; 1 * 60 mg/kg) was 100.0% and the “Injection site: Tumour infiltration: Severe” value ([2]; 1 * 60 mg/kg) was 25.0%. The “Liver: Tumour cell necrosis/apoptosis: Marked” value ([2]; 1 * 60 mg/kg) was 0.0%, the “Liver: Tumour cell necrosis/apoptosis: Mild” value ([2]; 1 * 60 mg/kg) was 0.0% and the “Liver: Tumour cell necrosis/apoptosis: Minimal” value ([2]; 1 * 60 mg/kg) was 0.0%. The “Liver: Tumour cell necrosis/apoptosis: Moderate” value ([2]; 1 * 60 mg/kg) was 0.0%, the “Liver: Tumour cell necrosis/apoptosis: No” value ([2]; 1 * 60 mg/kg) was 100.0% and the “Liver: Tumour cell necrosis/apoptosis: Overall” value ([2]; 1 * 60 mg/kg) was 0.0%. The “Liver: Tumour cell necrosis/apoptosis: Severe” value ([2]; 1 * 60 mg/kg) was 0.0%, the “Liver: Tumour infiltration: Marked” value ([2]; 1 * 60 mg/kg) was 0.0% and the “Liver: Tumour infiltration: Mild” value ([2]; 1 * 60 mg/kg) was 25.0%. For the same compound, the “Liver: Tumour infiltration: Minimal” value ([2]; 1 * 60 mg/kg) was 25.0%, the “Liver: Tumour infiltration: Moderate” value ([2]; 1 * 60 mg/kg) was 25.0% and the “Liver: Tumour infiltration: No” value ([2]; 1 * 60 mg/kg) was 25.0%. For the same compound, the “Liver: Tumour infiltration: Overall” value ([2]; 1 * 60 mg/kg) was 75.0%, the “Liver: Tumour infiltration: Severe” value ([2]; 1 * 60 mg/kg) was 0.0% and the “Tumour presence: Animals” value ([2]; 1 * 60 mg/kg) was 75.0%. For the same compound, the “Tumour presence: Overall” value ([2]; 1 * 60 mg/kg) was 100.0%, the “Injection site: Tumour cell necrosis/apoptosis: Marked” value ([2]; 2 * 60 mg/kg) was 33.3% and the “Injection site: Tumour cell necrosis/apoptosis: Mild” value ([2]; 2 * 60 mg/kg) was 66.7%. For the same compound, the “Injection site: Tumour cell necrosis/apoptosis: Minimal” value ([2]; 2 * 60 mg/kg) was 0.0%, the “Injection site: Tumour cell necrosis/apoptosis: Moderate” value ([2]; 2 * 60 mg/kg) was 0.0% and the “Injection site: Tumour cell necrosis/apoptosis: No” value ([2]; 2 * 60 mg/kg) was 0.0%. For the same compound, the “Injection site: Tumour cell necrosis/apoptosis: Overall” value ([2]; 2 * 60 mg/kg) was 100.0%, the “Injection site: Tumour cell necrosis/apoptosis: Severe” value ([2]; 2 * 60 mg/kg) was 0.0% and the “Injection site: Tumour infiltration: Marked” value ([2]; 2 * 60 mg/kg) was 11.1%. For the same compound, the “Injection site: Tumour infiltration: Mild” value ([2]; 2 * 60 mg/kg) was 0.0%, the “Injection site: Tumour infiltration: Minimal” value ([2]; 2 * 60 mg/kg) was 0.0% and the “Injection site: Tumour infiltration: Moderate” value ([2]; 2 * 60 mg/kg) was 0.0%. For the same compound, the “Injection site: Tumour infiltration: No” value ([2]; 2 * 60 mg/kg) was 0.0%, the “Injection site: Tumour infiltration: Overall” value ([2]; 2 * 60 mg/kg) was 11.1% and the “Injection site: Tumour infiltration: Severe” value ([2]; 2 * 60 mg/kg) was 0.0%. For the same compound, the “Liver: Tumour cell necrosis/apoptosis: Marked” value ([2]; 2 * 60 mg/kg) was 0.0%, the “Liver: Tumour cell necrosis/apoptosis: Mild” value ([2]; 2 * 60 mg/kg) was 0.0% and the “Liver: Tumour cell necrosis/apoptosis: Minimal” value ([2]; 2 * 60 mg/kg) was 0.0%. The “Liver: Tumour cell necrosis/apoptosis: Moderate” value ([2]; 2 * 60 mg/kg) was 0.0%, the “Liver: Tumour cell necrosis/apoptosis: No” value ([2]; 2 * 60 mg/kg) was 100.0% and the “Liver: Tumour cell necrosis/apoptosis: Overall” value ([2]; 2 * 60 mg/kg) was 0.0%. For the same compound, the “Liver: Tumour cell necrosis/apoptosis: Severe” value ([2]; 2 * 60 mg/kg) was 0.0%, the “Liver: Tumour infiltration: Marked” value ([2]; 2 * 60 mg/kg) was 0.0% and the “Liver: Tumour infiltration: Mild” value ([2]; 2 * 60 mg/kg) was 11.1%. For the same compound, the “Liver: Tumour infiltration: Minimal” value ([2]; 2 * 60 mg/kg) was 33.3%, the “Liver: Tumour infiltration: Moderate” value ([2]; 2 * 60 mg/kg) was 0.0% and the “Liver: Tumour infiltration: No” value ([2]; 2 * 60 mg/kg) was 55.6%. For the same compound, the “Liver: Tumour infiltration: Overall” value ([2]; 2 * 60 mg/kg) was 44.4%, the “Liver: Tumour infiltration: Severe” value ([2]; 2 * 60 mg/kg) was 0.0% and the “Tumour presence: Animals” value ([2]; 2 * 60 mg/kg) was 0.0%. The “Tumour presence: Overall” value ([2]; 2 * 60 mg/kg) was 55.6%, the “severity of tumoural cell infiltration” value ([2]; single 60 or 80 mg/kg or two injections of 60 mg/kg) was “significant decrease in the severity of tumoural cell infiltration” and the tumour regression ([2]; single dose of 60 mg/kg) was “significant tumour regression”. For the same compound, the “mice with tumour lesions” value ([2]; single dose of 60 mg/kg, 60 mg/kg) was “only one mouse had moderate tumour lesions”, the tumour regression ([2]; two administrations of 60 mg/kg, versus control and single 60 mg/kg) was “Significant tumour regression” and the “infiltration in the liver” value [2, 4] was “Only one mouse exhibited a moderate level of infiltration in the liver”. The “tumours in organs (liver, spleen, bone marrow)” value [2, 4] was “No tumours were observed in any organs” and the “effect on cell cycle checkpoint proteins” value [3] was “activated cell cycle checkpoint proteins”.
